Values belong to the compound of their own block, whether it stands above or below them.
Legend:
Liver = test: Metabolic stability in rat liver S9 fraction assessed as esterase conversion rate; assay type: ADME, subcellular
[1] = Aqueous stability assessed as time to reach 90% of starting dose at pH 7; settings: buffer
Trypanosoma brucei = test: Antiparasitic activity against Trypanosoma brucei; assay type: functional, organism-based
[2] = Chemical stability assessed as half life of hydrolysis in phosphate buffer at pH 8.5; assay type: physicochemical
[3] = Chemical stability assessed as half life of hydrolysis in carbonate buffer at pH 8.5; assay type: physicochemical
[4] = Oral bioavailability in rat; assay type: ADME, organism-based; settings: in vivo
[5] = Aqueous stability assessed as time to reach 90% of starting dose at pH 7; assay type: physicochemical; settings: buffer
[6] = Aqueous stability assessed as time to reach 90% of starting dose at pH 3.0 to 7.4; assay type: physicochemical; settings: buffer
[7] = Stability in human gastric juice assessed as half life of hydrolysis; assay type: ADME, tissue-based
[8] = Stability in human serum assessed as half life of hydrolysis; assay type: ADME, cell-free
[9] = Chemical stability assessed as half life of hydrolysis at acidic pH; assay type: physicochemical
[10] = Chemical stability assessed as half life of hydrolysis at neutral pH; assay type: physicochemical

Compound: CCOC(=O)[C@H](C)NP(=O)(Oc1ccccc1)c1ccc(-c2nc(N)sc2CC(C)C)o1 (stereo partly specified)
Stability (Liver): 55 nmol/min/mg | Stability [1]: 14 h

Compound: CC(C)(C)C(=O)SCCOP(=O)(OCCSC(=O)C(C)(C)C)Oc1ccc(O)c(C(=O)O)c1
IC50 (Trypanosoma brucei): 20 µM

Compound: O=C(O)CCNC(=O)[C@H](Cc1ccc(-c2ccccc2)cc1)NCP(=O)(Oc1ccccc1)Oc1ccccc1
half-life [2]: > 96 h | half-life [3]: 0.5 h

Compound: CC(=O)Oc1ccc(COP(=O)(OCc2ccc(OC(C)=O)cc2)c2ccc(-c3nc(N)sc3CC(C)C)o2)cc1
Stability [6]: < 4 h | Stability (Liver): > 300 nmol/min/mg

Compound: CCOC(=O)CNP(=O)(NCC(=O)OCC)c1ccc(-c2nc(N)sc2CC(C)C)o1
Stability (Liver): 43 nmol/min/mg | Stability [1]: 36 h

The remaining lines, values ahead:

Stability (Liver): > 300 nmol/min/mg | Stability [1]: 8 h
Compound: CC(=O)SCCOP(=O)(OCCSC(C)=O)c1ccc(-c2nc(N)sc2CC(C)C)o1

bioavailability [4]: 22% | Stability [5]: > 7 days | Stability [6]: > 48 h | Stability (Liver): 11 nmol/min/mg
Compound: CCOC(=O)[C@H](C)NP(=O)(N[C@@H](C)C(=O)OCC)c1ccc(-c2nc(N)sc2CC(C)C)o1

half-life [7]: < 5 min | half-life [8]: 4 h
Compound: CC(C)(C)C(=O)SCCOP(=O)(COCCn1cnc2c(N)ncnc21)OCCSC(=O)C(C)(C)C

Stability (Liver): > 300 nmol/min/mg | Stability [1]: < 4 h
Compound: CC(C)Cc1sc(N)nc1-c1ccc(P(=O)(OCOC(=O)C(C)(C)C)OCOC(=O)C(C)(C)C)o1

half-life [9]: > 40 h | half-life [10]: > 40 h
Compound: CC(C)(C)C(=O)OCOP(=O)(OCOC(=O)C(C)(C)C)OC[C@H]1O[C@@H](n2cc(F)c(=O)[nH]c2=O)C[C@@H]1O

— ChEMBL document CHEMBL1144790, “Prodrugs of phosphates and phosphonates” (J Med Chem, 2008)
